Experiments:
Superscript II = target: T1, Superscript II (Moloney murine leukemia virus, UniProt P03355, D1183G/D1242N/E1221Q); experiment: pH-dependent reverse transcription of 5BrU-containing RNA oligonucleotide measured by sequencing; type: biochemical
T1 construct: purchased Thermo Fisher Scientific
Method: Further, it has been shown that 5BrU is taken up by cells, phosphorylated, and incorporated into nascent RNA (Larsen et al., Current Protocols in Cytometry. 12 (7.12): 7.12.1-7.12.11, 2001). […] We used […] of the synthetic RNA oligonucleotide which contained a 5BrU modification at a single central position. […] The reverse transcription was performed by Superscript II (Thermo Fisher Scientific) according to the instructions of the manufacturer using the RT DNA oligonucleotide primer (5″-[…]-3″, SEQ ID NO: 9) and 5×RT buffer for which pH was adjusted to pH7, pH8, or pH9, respectively. After reverse transcription, […] reverse transcription product was subjected to PCR amplification using KAPA Real-time Library Amplification Kit (KAPA Biosystems) according to the instructions of the manufacturer, using the DNA oligonucleotides Solexa PCR Fwd (5″-[…]-3′, SEQ ID NO: 10) and Solexa IDX rev (5′-[…]-3′, SEQ ID NO: 11; NNNNNN indicates the position of the barcode-nucleotides). The amplified libraries were sequenced by high-throughput sequencing using the Illumina MiSeq platform. The conversion rates for the 5BrU nucleotide were determined by counting the frequency of nucleotide A (adenine), G (guanine), and C (cytosine) other than the expected majority readout of T (thymine) at the position of 5BrU.
The pH-dependent conversion rates of 5BrU, or T in the final readout, to A (T>A conversion) show a 1.1-fold and 1.4-fold increase with an increase of pH during reverse transcription to pH 8 and pH 9 respectively compare to the background conversion rate of 3·10^−4 at pH 7 (FIG. 37C). The T>G conversion increases by 1.2- and 1.9-fold compare to the lower background conversion rate of 1·10^−4 at pH 7. In contrast, the T>C conversion rate increases by 2.2-fold and 4.3-fold compare to the background conversion rate of 3·10^−4 at pH 7. The signature of the pH dependent changes in conversion rates is characteristic for the 5BrU in the RNA and can be used to identify the number of 5BrU which are incorporated into nascent RNA during transcription.

BRD4 = experiment: Auxin-inducible degradation of AID-tagged BRD4 in K562 cells (immunoblotting); type: cell-based, human; settings: AID-tagged K562 cells expressing Tir1
MYC [1] = experiment: Auxin-inducible degradation of AID-tagged MYC in K562 cells (immunoblotting); type: cell-based, human; settings: Tir1-expressing
MYC [2] = experiment: Auxin-inducible degradation of AID-tagged MYC in HCT116 cells (immunoblotting); type: cell-based, human; settings: TIR1-expressing HCT116 MYC-AID cells
K562 cells = experiment: SLAM-seq transcriptional response in K562 cells; type: cell-based, human
Method: (§1) All SLAM-seq assays were performed at 60-70% confluency for adherent cells or 60% of the maximum cell density counted on a hemocytometer for suspension cells. 5-7 h prior to each assay, growth medium was aspirated and replaced. Unless stated otherwise, cells were pre-treated with indicated small molecule inhibitors or 100 μM IAA for 30 minutes to pre-establish full target inhibition or degradation. Newly synthesized RNA was labeled for indicated time spans (45′ or 60′) at a final concentration of 100 μM 4-thiouridine (s^4U, Carbosynth). Adherent cells were harvested by direct snap-freezing of plates on dry ice. Suspension cells were spun down and immediately snap-frozen. RNA extraction was performed using the RNeasy Plus Mini Kit (Qiagen). Total RNA was subjected to alkylation by iodoacetamide (Sigma, 10 mM) for 15′ and RNA was re-purified by ethanol precipitation. […]
(§2) All other SLAM-seq experiments were performed in triplicates and analyzed as follows. Differential gene expression calling was performed on raw read counts with 2 T>C conversions using DESeq2 (version 1.14.1) with default settings, and with size factors estimated on corresponding total mRNA reads for global normalization. […]

MV4-11 = experiment: SLAM-seq transcriptional response in MV4-11 cells; type: cell-based, human; settings: high-dose (1 or 5 μM)
Method: as §1, §2

Pol2-S2 phosphorylation [3] = experiment: Pol2-S2 phosphorylation after BETi treatment in K562 cells; type: cell-based, human; settings: high-dose (1 or 5 μM)
Method: (§3) Chemiluminescent detection of primary antibodies was performed using HRP-conjugated secondary antibodies (Cell Signaling Technology, catalog numbers #7074, #7076 and #7077). Alternatively, fluorescence detection of rabbit and mouse primary antibodies was performed on an Odyssey CLx Imaging System (LI-COR Biosciences) using secondary antibodies IRDye 680RD Goat anti-Rabbit IgG and IRDye 800CW Goat anti-Mouse IgG (LI-COR Biosciences).
(§4) While these findings are in line with the promiscuous binding of BRD4 to active TSS and its physical interaction with core transcriptional machinery, they contrast selective effects observed after BETi treatment in conventional expression analysis. To define immediate transcriptional effects of BETi and compare them to BRD4 degradation, we performed SLAM-seq following treatment with different doses of the BETi JQ1 in K562 cells and the acute myeloid leukemia (AML) cell line MV4-11.

Pol2-S2 phosphorylation [4] = experiment: Pol2-S2 phosphorylation after BETi treatment in MV4-11 cells; type: cell-based, human; settings: high-dose (1 or 5 μM)
Method: as §3, §4

MOLM-13 cells = experiment: SLAM-seq transcriptional response to NVP-2 and JQ1 in MOLM-13 cells; type: cell-based, human
Method: as §1, §2

[5] = test system: reverse transcriptases (Superscript II, Superscript III, Quant-seq RT); experiment: Reverse transcription of synthetic thiol-nucleotide-containing RNA followed by high-throughput sequencing; type: biochemical; settings: s^6G-containing RNA
Method: Primer extension assays were essentially performed as described previously by Nilsen et al. (Cold Spring Harb Protoc. 2013, 1182-1185). Briefly, template RNA oligonucleotides (5L-let-7-3L or 5L-let-7-s^4Up9-3L; Dharmacon; see Table for sequences) were deprotected according to the instructions of the manufacturer and purified by denaturing polyacrylamide gel-elution. 100 μM purified RNA oligonucleotides were treated with 10 mM iodoacetamide (+IAA) or EtOH (−IAA) in standard reaction conditions (50% DMSO, 50 mM sodiumphosphate buffer, pH 8) for 15 min at 50° C. The reaction was stopped by addition of 20 mM DTT, followed by ethanol precipitation. RT primer (see Table for sequence) was 5′ radiolabeled using γ-^32P-ATP (Perkin-Elmer) and T4-polynucleotide kinase (NEB), followed by denaturing polyacrylamide gel-purification. 640 nM γ-^32P-RT primer was annealed to 400 nM 5L-let-7-3L or 5L-let-7-s^4Up9-3L in 2× annealing buffer (500 mM KCl, 50 mM Tris pH 8.3) in a PCR machine (3 min 95° C., 30 sec 85° C. Ramp 0.5° C./s, 5 min 25° C. Ramp 0.1° C./s). Reverse transcription was performed using Superscript II (Invitrogen), Superscript III (Invitrogen), or Quant-seq RT (Lexogen) as recommended by the manufacturer. For dideoxynucleotide reactions, a final concentration of 500 μM ddNTP (as indicated) was added to RT reactions. Upon completion, RT reactions were resuspended in formamide loading buffer (Gel loading buffer II, Thermo Fisher Scientific) and subjected to 12.5% denaturing polyacrylamide gel electrophoresis. Gels were dried, exposed to storage phosphor screen (PerkinElmer), imaged on a Typhoon TRIO variable mode imager (Amersham Biosciences), and quantified using ImageQuant TL v7.0 (GE Healthcare). […]
For sequencing analysis of synthetic RNA samples (FIG. 5) barcoded libraries were demultiplexed using Picard Tools BamIndexDecoder v1.13 allowing 0 mismatches in the barcode. […] Remaining aligned reads were converted to pileup format. […] Output table was analyzed and plotted in Excel v15.22 (Microsoft) and Prism v7.0a (GraphPad). […]

## O=c1[nH]c(=O)n([C@@H]2O[C@H](CO)[C@@H](O)[C@H]2O)cc1Br [5BrU, 5-Bromouridine]
Superscript II; pH 7
  T>A background conversion rate: 3·10^−4
  T>C background conversion rate: 3·10^−4
  T>G background conversion rate: 1·10^−4
Superscript II; pH 8
  increase of T>A conversion rate relative to pH 7: 1.1 fold
  increase of T>C conversion rate relative to pH 7: 2.2 fold
  increase of T>G conversion rate relative to pH 7: 1.2 fold
Superscript II; pH 9
  increase of T>A conversion rate relative to pH 7: 1.4 fold
  increase of T>C conversion rate relative to pH 7: 4.3 fold
  increase of T>G conversion rate relative to pH 7: 1.9 fold

## O=C(O)Cc1c[nH]c2ccccc12 [auxin, indole-3-acetic acid]
BRD4
  time to near complete degradation of BRD4: ≤ 30 ′
MYC [1]
  time to degradation of MYC: less than 30 ′
MYC [2]
  time to complete degradation of MYC: less than 30 ′

## Cc1sc2c(c1C)C(c1ccc(Cl)cc1)=N[C@@H](CC(=O)OC(C)(C)C)c1nnc(C)n1-2 [JQ1]
K562 cells; 200 nM
  direct transcriptional response: selective deregulation of a small number of transcripts
K562 cells; high-dose (1 or 5 μM)
  direct transcriptional response: broadly suppressed transcription
MV4-11
  direct transcriptional response: broadly suppressed transcription
Pol2-S2 phosphorylation [3]
  Pol2-S2 phosphorylation: globally reduced Pol2-S2 phosphorylation
Pol2-S2 phosphorylation [4]
  Pol2-S2 phosphorylation: globally reduced Pol2-S2 phosphorylation

## COC[C@@H](C)NC1CCC(Nc2cc(-c3cccc(NCC4(C#N)CCOCC4)n3)c(Cl)cn2)CC1 (some centres unmarked) [NVP-2]
MOLM-13 cells; high-dose, 60 nM
  transcriptional response: globally suppressed transcription
MOLM-13 cells; intermediate dose, 6 nM
  transcriptional response: selective transcriptional responses

## 4-thiouridine [s^4U]
[5]
  conversion observed: G to A conversion
